# From patent US12259384B2, “Membrane and droplet-interface bilayer systems and methods” (University of Massachusetts, priority 2015, dated 2025)
# Biological target: α-hemolysin (Staphylococcus aureus, UniProt P09616)
# Type: biochemical
# α-hemolysin, sequence (P09616 27-319 limits assumed): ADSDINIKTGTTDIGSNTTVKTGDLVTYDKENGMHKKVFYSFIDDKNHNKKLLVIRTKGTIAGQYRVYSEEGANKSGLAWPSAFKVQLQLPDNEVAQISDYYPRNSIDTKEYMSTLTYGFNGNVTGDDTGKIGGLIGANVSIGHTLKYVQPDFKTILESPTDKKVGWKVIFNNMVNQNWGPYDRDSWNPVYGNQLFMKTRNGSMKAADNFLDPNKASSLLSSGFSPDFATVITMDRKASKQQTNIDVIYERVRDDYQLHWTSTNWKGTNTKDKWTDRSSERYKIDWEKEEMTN
structure (smiles),measurement,value
"OC[C@H]1O[C@@H]2O[C@H]3[C@H](O)[C@@H](O)[C@@H](O[C@H]4[C@H](O)[C@@H](O)[C@@H](O[C@H]5[C@H](O)[C@@H](O)[C@@H](O[C@H]6[C@H](O)[C@@H](O)[C@@H](O[C@H]7[C@H](O)[C@@H](O)[C@@H](O[C@H]8[C@H](O)[C@@H](O)[C@@H](O[C@H]9[C@H](O)[C@@H](O)[C@@H](O[C@H]1[C@H](O)[C@H]2O)O[C@@H]9CO)O[C@@H]8CO)O[C@@H]7CO)O[C@@H]6CO)O[C@@H]5CO)O[C@@H]4CO)O[C@@H]3CO [cyclodextrin, γ-Cyclodextrin]",magnitude and lifetime of the reversible blockades of the α-hemolysin pore,consistent with previous reports
same,reversible blockages of the α-hemolysin pores,reversible blockages of the pores by cyclodextrin are observed
